Source: patent publication US6703388B2, “Nitrogen-containing tricyclic compounds and drugs containing the same” (Eisai Co., Ltd., priority 1996, dated 2004)
Where two headings read alike, the source gives them in different places.

Columns and labels:
human basophils = assay: Inhibition of mediator (histamine, peptide leukotriene) liberation from human basophils stimulated with mite antigen; type: cell-based; settings: enzyme immunoassay
Experimental: 6 ml of 6% dextran (for separating leukocytes, having a high molecular weight) was added to 20 ml of heparinized blood. After stirring well, the resulting mixture was allowed to stand at 37° C. for 30 min and thus erythrocytes were precipitated. The upper layer was taken up and phosphate buffered saline (D-PBS) was added thereto followed by centrifugation at 185 g for 8 minutes to give a crude leukocyte fraction. These cells were subjected to hypotonic hematolysis and then suspended in D-PBS(+) containing 0.1%-BSA. The resulting suspension was used in the subsequent experiment as the leukocyte fraction containing basophils. 0.4 ml of this cell suspension was preliminarily heated to 37° C. for 5 min and then 0.05 ml of a specimen solution was added thereto followed by a pretreatment at 37° C. for 15 min. Next, 0.05 ml of a mite antigen solution was added thereto to induce an antigen-antibody reaction. After 10 min, the reaction was ceased by ice-cooling. Then the reaction mixture was centrifuged at 185 g for 10 min and histamine and peptide leukotrienes in the resulting supernatant were determined by using enzyme immunoassay kits. From the results of the assay, the activities of the acridone derivatives of inhibiting the liberation of histamine and peptide leukotriene were determined.

RBL-2H3 cells = assay: Inhibition of serotonin liberation from IgE-sensitized RBL-2H3 cells after antigen stimulation; type: cell-based, rat; settings: Rattus norvegicus; [3H]-serotonin release, IgE-sensitized RBL-2H3 cells, antigen stimulation; read-out: IC50 (μM) in serotonin liberation from RBL-2H3 cells
Excerpt: IgE-sensitized RBL-2H3 cells (i.e., a cell line originating in rat cells) release and produce not only histamine and serotonin but also cytokines such as TNF α and prostaglandins which are inflammatory mediators after stimulation with IgE sepecific antibody. In this experimental system, inhibitory effects on various mediators release were examined by using serotonin as an indication.
The cells were beforehand labeled with [^3H]-labeled serotonin and, at the same time, sensitized with the IgE antibody. After incubating with the compounds of the present invention, the cells were stimulated with the specific antigen. Then the inhibitory activity of each compound was calculated from the amount of the [^3H]-labeled serotonin thus liberated into the medium and the amount of [^3H]-labeled serotonin liberated when no compound of the present invention was added.

[1] = histamine, read-out: IC50 (μM) in mediator liberation from human basophils: histamine
[2] = peptide leukotriene, read-out: IC50 (μM) in mediator liberation from human basophils: leukotriene

SMILES | IC50 (human basophils; [1]) [µM] | IC50 (human basophils; [2]) [µM] | IC50 (RBL-2H3 cells) [µM]
Cc1ccc2c(c1C)N(CCNCc1cccc(C(F)(F)F)c1O)c1ccccc1[S+]2[O-] (centres unmarked) [Example 163] | 10 to 30 | 10 | 3
Cc1ccc2c(c1C)N(CCCCNCc1ccccc1O)c1ccccc1[S+]2[O-] (centres unmarked) [Example 140] | 10 | 3 to 10 | 3
Cc1ccc2c(c1C)N(CCCNC(C)c1ccccc1O)c1ccccc1[S+]2[O-] (centres unmarked) [Example 102] | 30 | 10 to 30 | 1
COc1ccsc1CNCCCN1c2ccc(F)cc2[S+]([O-])c2ccc(C)c(C)c21 (centres unmarked) [Example 87] | 3 to 10 | 3 to 10 | 3
COc1cccc(OC)c1CNCCCN1c2ccccc2[S+]([O-])c2ccc(C)c(C)c21 (centres unmarked) [Example 45] | 3 to 10 | 3 | 1
COc1cccc(CN(C)CCN2c3ccccc3[S+]([O-])c3ccc(C)c(C)c32)c1O (centres unmarked) [Example 180] | 30 to 100 | 3 to 10 | 2
Cc1ccc2c(c1C)N(CCCNCc1cccc(Cl)c1O)c1ccccc1[S+]2[O-] (centres unmarked) [Example 29] | 10 to 30 | 3 to 10 | 0.8
Cc1ccc2c(c1C)N(CCCNCc1c(O)ccc(C)c1O)c1ccccc1[S+]2[O-] (centres unmarked) [Example 37] | 10 to 30 | 3 to 10 | 2
Cc1ccc2c(c1)N(CCCN(C)Cc1ccccc1O)c1c(ccc(C)c1C)[S+]2[O-] (centres unmarked) [Example 188] | 10 | 3 to 10 | 1
Cc1ccc2c(c1C)N(CCCNCc1ccc(O)cc1)c1ccccc1[S+]2[O-] (centres unmarked) [Example 25] | 30 | 10 to 30 | 3
Cc1ccc2c(c1C)N(CCCNCc1ccccc1)c1cccc(Cl)c1[S+]2[O-] (centres unmarked) [Example 82] | 3 to 10 | 10 to 30 | 2
Cc1ccc2c(c1C)N(CCCN(C)Cc1ccccc1OCCO)c1ccccc1[S+]2[O-] (centres unmarked) [Example 173] | 30 | 10 | 0.3
Cc1ccc2c(c1C)N(CCCNCc1ccccc1N(C)C)c1ccccc1[S+]2[O-] (centres unmarked) [Example 50] | 30 | 10 to 30 | 2
COc1ccccc1CN(C)CCN1c2ccccc2[S+]([O-])c2ccc(C)c(C)c21 (centres unmarked) [Example 182] | 30 to 100 | 10 to 30 | 2
Cc1ccc2c(c1C)N(CCCN(C)Cc1c(O)ccc(C)c1O)c1ccccc1[S+]2[O-] (centres unmarked) [Example 174] | 10 to 30 | 10 | 0.5
Cc1ccc2c(c1C)N(CCCN(CCN(C)C)Cc1ccccc1)c1ccccc1[S+]2[O-] (centres unmarked) [Example 125] | < 10 | < 10 | 2
Cc1ccc2c(c1C)N(CCNCc1ccc(S(N)(=O)=O)cc1)c1ccccc1[S+]2[O-] (centres unmarked) [Example 195] | 30 to 100 | 10 to 30 | 0.5
Cc1ccc2c(c1C)N(CCN(C)Cc1ccccc1OCCO)c1ccccc1[S+]2[O-] (centres unmarked) [Example 183] | 30 to 100 | 10 to 30 | 3
Cc1ccc2c(c1C)N(CCCNCc1ccccc1N)c1ccccc1[S+]2[O-] (centres unmarked) [Example 51] | 10 to 30 | 10 to 30 | 2
Cc1ccc2c(c1C)N(CCCN(C)Cc1ccc(CO)o1)c1ccccc1[S+]2[O-] (centres unmarked) [Example 177] | 10 | < 3 | 1
Cc1ccc2c(c1C)N(CCCNCc1ccc(O)c(C(=O)O)c1)c1ccccc1[S+]2[O-] (centres unmarked) [Example 32] | 30 to 100 | 10 to 30 | 0.5
COCOc1c(CNCCCN2c3ccccc3[S+]([O-])c3ccc(C)c(C)c32)cccc1OC(C)C (centres unmarked) [Example 47] | 3 to 10 | 3 | 0.5
Cc1ccc2c(c1C)N(CCCNCc1ccccc1)c1cc(C#N)ccc1[S+]2[O-] (centres unmarked) [Example 90] | 30 to 100 | 10 to 30 | 3
Cc1ccc2c(c1C)N(CCNCc1cccc(CO)c1O)c1ccccc1[S+]2[O-] (centres unmarked) [Example 152] | 3 to 10 | < 3 | 1
Cc1ccc2c(c1C)N(CCCN(C)Cc1ccccc1)c1cc(-c3nnn(C)n3)ccc1[S+]2[O-] (centres unmarked) [Example 190] | 3 | 10 | 0.5
COc1cccc(CNCCCN2c3ccccc3[S+]([O-])c3ccc(C)c(C)c32)c1O (centres unmarked) [Example 27] | 30 to 100 | 10 to 30 | 3

SMILES | IC50 (human basophils; [1]) [µM] | IC50 (human basophils; [2]) [µM] | IC50 (RBL-2H3 cells) [µM]
Cc1ccc2c(c1C)N(CCCNCCc1ccccc1)c1ccc(F)cc1[S+]2[O-] (centres unmarked) [Example 86] | 10 to 30 | 10 | 1
Cc1ccc2c(c1C)N(CCCNCc1ccc(CO)o1)c1ccccc1[S+]2[O-] (centres unmarked) [Example 65] | 30 to 100 | 10 to 30 | 0.5
Cc1ccc2c(c1C)N(CCCNCc1[nH]cnc1-c1ccccc1)c1ccccc1[S+]2[O-] (centres unmarked) [Example 69] | 10 | 3 to 10 | 1
COc1ccc(CNCCCN2c3ccccc3[S+]([O-])c3ccc(C)c(C)c32)o1 (centres unmarked) [Example 64] | 3 to 10 | 3 | 3
Cc1ccc2c(c1C)N(CCCNCc1cccc(N(C)C)c1)c1ccccc1[S+]2[O-] (centres unmarked) [Example 49] | 10 | 3 to 10 | 2
Cc1ccc2c(c1C)N(CCCN(C)Cc1cccc(O)c1)c1ccccc1[S+]2[O-] (centres unmarked) [Example 166] | 10 to 30 | 3 to 10 | 0.5
Cc1ccc2c(c1C)N(CCCNC(CO)c1ccccc1)c1ccccc1[S+]2[O-] (centres unmarked) [Example 128] | – | 10 to 30 | 1
COCOc1ccccc1CNCCCN1c2ccccc2[S+]([O-])c2ccc(C)c(C)c21 (centres unmarked) [Example 44] | 10 to 30 | 10 | 1
Cc1ccc2c(c1C)N(CCCNCc1ccco1)c1ccccc1[S+]2[O-] (centres unmarked) [Example 62] | 10 | 3 | 3
Cc1ccc2c(c1C)N(CCNCc1ccccc1O)c1ccccc1[S+]2[O-] (centres unmarked) [Example 144] | 10 to 30 | 10 to 30 | 8
COc1cc(C)c(O)c(CN(C)CCCN2c3ccccc3[S+]([O-])c3ccc(C)c(C)c32)c1O (centres unmarked) [Example 175] | 30 to 100 | 10 | 0.8
COc1cccc(CN(C)CCCN2c3ccccc3[S+]([O-])c3ccc(C)c(C)c32)c1O (centres unmarked) [Example 169] | 30 to 100 | 10 to 30 | 0.5
Cc1ccc2c(c1C)N(CCNCc1cc(Cl)cc(Cl)c1O)c1ccccc1[S+]2[O-] (centres unmarked) [Example 146] | < 10 | < 10 | 3
Cc1ccc2c(c1C)N(CCNCc1ncc[nH]1)c1ccccc1[S+]2[O-] (centres unmarked) [Example 162] | 30 to 100 | < 10 | 1
Cc1ccc2c(c1C)N(CCN(C)Cc1cccc(C)c1O)c1ccccc1[S+]2[O-] (centres unmarked) [Example 181] | 10 to 30 | < 10 | 2
COc1cccc(OC)c1CN(C)CCCN1c2ccccc2[S+]([O-])c2ccc(C)c(C)c21 (centres unmarked) [Example 170] | 10 to 30 | 3 | 0.5
Cc1ccc2c(c1C)N(CCCNCCOc1ccccc1)c1ccccc1[S+]2[O-] (centres unmarked) [Example 113] | 10 | < 10 | 3
COc1ccsc1CNCCCN1c2ccc(Cl)cc2[S+]([O-])c2ccc(C)c(C)c21 (centres unmarked) [Example 81] | 10 to 30 | 3 to 10 | 1
Cc1ccc2c(c1C)N(CCCNCc1cccc(O)c1)c1ccccc1[S+]2[O-] (centres unmarked) [Example 24] | 10 to 30 | 10 to 30 | 3
Cc1ccc2c(c1C)N(CCCNCc1cccc3c1OCO3)c1ccccc1[S+]2[O-] (centres unmarked) [Example 54] | 10 | 3 to 10 | 1
COc1cc(C)c(O)c(CNCCCN2c3ccccc3[S+]([O-])c3ccc(C)c(C)c32)c1O (centres unmarked) [Example 39] | 10 to 30 | 10 to 30 | 2
Cc1ccc2c(c1C)N(CCCNCc1ccccc1)c1ccc(Cl)cc1[S+]2[O-] (centres unmarked) [Example 80] | 10 | 3 to 10 | 1
Cc1ccc2c(c1C)N(CCN(C)Cc1cccc(CO)c1O)c1ccccc1[S+]2[O-] (centres unmarked) [Example 185] | 10 to 30 | < 3 | 0.5
Cc1ccc2c(c1C)N(CCCNCc1cc(Cl)cc(Cl)c1O)c1ccccc1[S+]2[O-] (centres unmarked) [Example 34] | 3 to 10 | 3 | 2
Cc1ccc2c(c1C)N(CCNCc1ccccc1OCCO)c1ccccc1[S+]2[O-] (centres unmarked) [Example 157] | 30 to 100 | 10 to 30 | 1
